Experimental findings from patent US20110212053A1, “PHOSPHATIDYLINOSITOL 3 KINASE INHIBITORS” (priority 2008, published 2011) are described below.

For test [1], the target named is T1, MELK (Homo sapiens, UniProt Q14680).
T1 construct: purchased Invitrogen or Millipore
As to the kind of experiment: MELK kinase assay (KinaseGLO). In kind it is biochemical. The protocol: (§1) Compound Preparation: KinaseGLO assay: 30× stocks of inhibitors were prepared in DMSO. A 10 mM master stock was prepared and all other stocks were generated by serial dilution of this master stock in DMSO. The final concentration of DMSO in the kinase reaction was 3.3% (v/v).
MELK kinase assay: The ability of compounds to inhibit MELK was also determined using the KinaseGLO assay. Briefly, MELK enzymes was thawed and diluted to a final concentration of 2.64 ng/μL in reaction buffer (50 mM HEPES, pH7.5, 100 mM NaCl, 2.0 mM DTT, 3.0 mM MgCl2, 1.0 mM EGTA, 10 μM ATP). 19 μl of this kinase reaction mixture was aliquoted into test wells (50 ng MELK/well) in a Microfluor2 white 96-well plate (Thermo Scientific). As a preincubation step, 1 μl of 30× compound dilutions was added to the appropriate test wells to generate a ten point dose-response ranging from 0.0 μM-10 μM inhibitor, and incubated for 15 minutes at 4° C. The reaction was started by addition of 10 μL of 150 μM ZIPtide peptide substrate resuspended in reaction buffer (50 μM final concentration of ZIPtide). Reactions were incubated at room temperature for 2 hours prior to addition of 30 μL of KinaseGLO reagent and development as described. Maximal luminescence (no MELK activity/maximal MELK inhibition) was determined from reaction buffer plus peptide substrate only controls. The minimal signal (maximal MELK activity) was determined by the 0.0 μM compound (DMSO only) control. IC50 values were calculated via non-linear regression using GraphPad Prism data analysis software. […]
(§2) Compounds of the invention were assayed against the select kinases using the KinaseGLO assay (MELK) or the radiometric assay (PIM, TRKC, PDGFRα(D842V), MNK1 and mTOR). IC50 values were determined using 8-10 point half-log dose dilutions and calculated via nonlinear regression analysis using Graphpad Prism data analysis software.

Test [2] addresses TRKC (Homo sapiens, UniProt Q16288). The test can be described thus: Radiometric HotSpot kinase assay, TRKC. In kind it is biochemical. As to conditions: 1 μM compound, 10 μM ATP. The protocol:
(§3) Kinase Profiling: The inhibitory activity of the PI3K inhibitor compounds of the invention against 250 protein kinases was determined via the radiometric HotSpot Kinase Profiling (Reaction Biology Corporation, Malvern, Pa.). Compounds were profiled at a final concentration of 1 μM compound against recombinant protein kinases in the presence of 10 μM ATP and data were expressed as percent inhibition. IC50 and/or percent inhibition at 1 μM compound values were determined for select compounds against a subset of kinases (MELK, MNK1, MNK2, mTOR, PIM-1. TRKC, and PDGFRα(D842V)).
as §2

For test [3], the target named is PIM-1 (Homo sapiens, UniProt P11309). The test can be described thus: Radiometric HotSpot kinase assay, PIM-1. To be noted: 1 μM compound, 10 μM ATP. In kind it is biochemical. Here is the method:
as §3, §2

Test [4] addresses PDGFRα(D842V) (Homo sapiens, UniProt P16234, D842V). The test can be described thus: Radiometric HotSpot kinase assay, PDGFRα(D842V). In kind it is biochemical. Here is the method: as §3, §2
The target of test [5] is T2, PI3Kα (Homo sapiens, UniProt P42336).
T2 construct: purchased Invitrogen or Millipore
The test can be described thus: KinaseGLO luminescent PI3-kinase assay, PI3Kα. In kind it is biochemical. Here is the method: as §1
PI3-Kinase Assay: The KinaseGLO® Luminescent Kinase Assay (Promega) is a luciferin-luciferase based luminescent assay that utilizes a proprietary thermostable luciferase to quantify the ATP remaining in a solution after a kinase reaction. The luminescent signal generated using KinaseGLO® directly correlates with ATP concentration, and therefore inversely correlates with kinase activity.
PI3K enzyme sample was thawed and diluted to 100 ng/μL in enzyme dilution buffer (50 mM HEPES, pH7.5, 3.0 mM MgCl2, 1.0 mM EGTA) and stored on ice. PI3Kα enzyme was diluted to a final concentration of 1 ng/μL in reaction buffer (for PI3Kα; 50 mM HEPES, pH7.5, 100 mM NaCl, 2.0 mM DTT, 3.0 mM MgCl2, 1.0 mM EGTA, 10 μM ATP) and gently mixed. 25 μL of this kinase reaction was then aliquoted into test wells in a Microfluor2 white 96-well plate (Thermo Scientific). As a preincubation step, 1 μl of 30× compound dilutions was added to the appropriate test wells to generate a ten point dose-response ranging from 0.0 μM-10 μM inhibitor. The enzyme-inhibitor mixture was then incubated for 30 minutes at 4° C. After this preincubation, […] (50 μM final concentration) was added to each test well to initiate the kinase reaction. Reactions were incubated at room temperature for 2 hours with moderate shaking. The KinaseGLO® luminescent reagent (Promega) was prepared according to the manufacturer's instructions. Both the KinaseGLO® buffer and substrate were allowed to thaw and equilibrate at room temperature for two hours prior to mixing and use. The PI3-kinase reaction was terminated by the addition of 30 μL of reconstituted KinaseGLO® reagent to each reaction well and then incubated in the dark for 10 minutes at room temperature. Luminescent signal was detected using a SpectraMax M5 (Molecular Devices). Maximal luminescence (no PI3K activity/maximal PI3K inhibition) was determined from reaction buffer plus SC-PI substrate only controls. The minimal signal (maximal PI3K activity) was determined by the 0.0 μM compound (DMSO only) control. IC50 values were calculated via non-linear regression using GraphPad Prism data analysis software.
Compounds were assayed against the Class I PI3Kα, PI3Kβ, PI3Kγ, PI3Kδ, PI3Kα(H1047R) and PI3Kα(E545K) in the KinaseGLO assay as described in Example 2, and against the Class IV PI3K mTOR in the radiometric assay. IC50 values (μM) were determined using 8-10 point half-log dose dilutions and calculated via nonlinear regression analysis using Graphpad Prism data analysis software.
For orientation: Kinase-Glo measures the ATP left after a reaction by luminescence.

Test [6] has as its system HCT116 colorectal carcinoma cells. As to the kind of experiment: Caspase-GLO 3/7 assay, HCT116. In kind it is cell-based. To be noted: Homo sapiens, HCT-116, 24 hours, CaspaseGLO.
Experimental: Caspase-GLO 3/7 Assay: To determine the ability of the PI3K inhibitor compounds of the invention to induce programmed cell death (apoptosis), caspase activity was monitored as an indicator of apoptosis. Human HCT116 colorectal carcinoma and PANC-1 pancreatic carcinoma cells were plated at 2000-8000 cells per well in white 96-well microplates and allowed to attach overnight. The following day the medium was removed by aspiration and the cells were washed once with 200 μL of DMEM containing 0.5% (v/v) FBS (assay medium). The cells were then incubated in 100 μL of assay medium containing increasing concentrations of the PI3K inhibitor compounds (from 0.003 μM to 10.0 μM in half-log dilutions) for 24 to 72 hours. Caspase activity was detected using the Caspase-GLO 3/7 assay (Promega) according to the manufacturer's instructions and measured on a Spectramax M5 multi-detection microplate reader (Molecular Devices Corp.). EC50 values were calculated via non-linear regression using GraphPad Prism data analysis software.
HCT116 cells were treated overnight with a pyrazoloquinoline compound of the invention, or with a commercially available dual PI3K(α,β,δ,γ)/mTOR inhibitor, or with a commercially available PI3K(α,β,δ,γ)-only inhibitor at concentrations of 0.5, 1.0 and 5.0 μM.

pEC50, pIC50: −log10 of the molar value. Where “and” joins values, the source holds several entries; their conditions need not be identical. Identical values can stand only once.

A word on the pIC50: it is the negative decadic logarithm of the IC50, by convention in mol/L. What is called inhibition is the share of the control response that was lost under treatment. Low readings indicate little suppression, high ones strong suppression. The term pEC50 denotes −log10 of the EC50, conventionally taken in molar units. High values mean a small EC50, low ones a large EC50.

Sequence of TRKC (Q16288 32-839): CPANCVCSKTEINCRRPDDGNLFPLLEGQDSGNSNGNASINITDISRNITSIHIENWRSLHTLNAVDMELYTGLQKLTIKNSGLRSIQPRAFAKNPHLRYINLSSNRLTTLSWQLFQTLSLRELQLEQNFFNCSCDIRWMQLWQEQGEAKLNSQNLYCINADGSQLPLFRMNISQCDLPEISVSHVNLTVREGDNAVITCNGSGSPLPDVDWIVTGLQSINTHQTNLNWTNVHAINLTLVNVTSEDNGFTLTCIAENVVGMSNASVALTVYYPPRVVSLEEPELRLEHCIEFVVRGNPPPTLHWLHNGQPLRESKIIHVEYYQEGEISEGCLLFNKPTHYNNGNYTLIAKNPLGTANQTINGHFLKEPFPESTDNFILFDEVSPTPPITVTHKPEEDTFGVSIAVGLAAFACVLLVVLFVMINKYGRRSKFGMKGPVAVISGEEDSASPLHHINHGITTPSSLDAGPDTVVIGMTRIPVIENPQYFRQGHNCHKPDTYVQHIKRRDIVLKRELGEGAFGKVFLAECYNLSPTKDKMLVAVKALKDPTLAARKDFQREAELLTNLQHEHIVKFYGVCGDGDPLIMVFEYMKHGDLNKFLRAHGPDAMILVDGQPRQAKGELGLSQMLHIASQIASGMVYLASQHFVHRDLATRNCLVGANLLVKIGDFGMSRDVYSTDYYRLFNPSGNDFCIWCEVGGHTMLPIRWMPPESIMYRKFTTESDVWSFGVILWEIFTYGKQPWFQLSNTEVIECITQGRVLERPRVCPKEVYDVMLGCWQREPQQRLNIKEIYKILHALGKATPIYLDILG
T1 sequence (Q14680 whole entry): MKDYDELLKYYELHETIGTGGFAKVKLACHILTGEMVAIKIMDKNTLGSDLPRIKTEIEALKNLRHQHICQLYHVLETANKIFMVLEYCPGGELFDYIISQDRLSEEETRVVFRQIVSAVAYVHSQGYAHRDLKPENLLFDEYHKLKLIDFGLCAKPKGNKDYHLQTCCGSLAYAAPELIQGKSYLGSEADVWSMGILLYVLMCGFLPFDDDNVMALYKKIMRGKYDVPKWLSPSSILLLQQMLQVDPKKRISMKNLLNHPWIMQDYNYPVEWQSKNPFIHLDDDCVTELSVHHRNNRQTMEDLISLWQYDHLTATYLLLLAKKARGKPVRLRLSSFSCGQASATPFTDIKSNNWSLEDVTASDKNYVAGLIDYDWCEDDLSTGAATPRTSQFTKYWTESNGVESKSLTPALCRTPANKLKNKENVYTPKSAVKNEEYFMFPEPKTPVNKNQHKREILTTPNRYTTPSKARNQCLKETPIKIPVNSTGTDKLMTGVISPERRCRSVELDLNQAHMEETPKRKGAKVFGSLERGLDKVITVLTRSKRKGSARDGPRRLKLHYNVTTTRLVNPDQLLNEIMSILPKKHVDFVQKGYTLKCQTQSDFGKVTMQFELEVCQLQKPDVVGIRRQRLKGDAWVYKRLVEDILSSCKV
Sequence of PIM-1 (P11309 whole entry): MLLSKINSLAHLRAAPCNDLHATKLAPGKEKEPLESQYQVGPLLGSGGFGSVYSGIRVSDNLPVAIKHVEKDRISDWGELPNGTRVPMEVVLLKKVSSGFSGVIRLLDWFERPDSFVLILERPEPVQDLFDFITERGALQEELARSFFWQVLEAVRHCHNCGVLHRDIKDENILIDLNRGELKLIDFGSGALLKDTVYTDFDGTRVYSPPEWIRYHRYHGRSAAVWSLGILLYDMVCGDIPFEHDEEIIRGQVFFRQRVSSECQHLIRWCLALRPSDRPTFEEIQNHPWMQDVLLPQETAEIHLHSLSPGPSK
Sequence of PDGFRα(D842V) (P16234 24-1089 D842V): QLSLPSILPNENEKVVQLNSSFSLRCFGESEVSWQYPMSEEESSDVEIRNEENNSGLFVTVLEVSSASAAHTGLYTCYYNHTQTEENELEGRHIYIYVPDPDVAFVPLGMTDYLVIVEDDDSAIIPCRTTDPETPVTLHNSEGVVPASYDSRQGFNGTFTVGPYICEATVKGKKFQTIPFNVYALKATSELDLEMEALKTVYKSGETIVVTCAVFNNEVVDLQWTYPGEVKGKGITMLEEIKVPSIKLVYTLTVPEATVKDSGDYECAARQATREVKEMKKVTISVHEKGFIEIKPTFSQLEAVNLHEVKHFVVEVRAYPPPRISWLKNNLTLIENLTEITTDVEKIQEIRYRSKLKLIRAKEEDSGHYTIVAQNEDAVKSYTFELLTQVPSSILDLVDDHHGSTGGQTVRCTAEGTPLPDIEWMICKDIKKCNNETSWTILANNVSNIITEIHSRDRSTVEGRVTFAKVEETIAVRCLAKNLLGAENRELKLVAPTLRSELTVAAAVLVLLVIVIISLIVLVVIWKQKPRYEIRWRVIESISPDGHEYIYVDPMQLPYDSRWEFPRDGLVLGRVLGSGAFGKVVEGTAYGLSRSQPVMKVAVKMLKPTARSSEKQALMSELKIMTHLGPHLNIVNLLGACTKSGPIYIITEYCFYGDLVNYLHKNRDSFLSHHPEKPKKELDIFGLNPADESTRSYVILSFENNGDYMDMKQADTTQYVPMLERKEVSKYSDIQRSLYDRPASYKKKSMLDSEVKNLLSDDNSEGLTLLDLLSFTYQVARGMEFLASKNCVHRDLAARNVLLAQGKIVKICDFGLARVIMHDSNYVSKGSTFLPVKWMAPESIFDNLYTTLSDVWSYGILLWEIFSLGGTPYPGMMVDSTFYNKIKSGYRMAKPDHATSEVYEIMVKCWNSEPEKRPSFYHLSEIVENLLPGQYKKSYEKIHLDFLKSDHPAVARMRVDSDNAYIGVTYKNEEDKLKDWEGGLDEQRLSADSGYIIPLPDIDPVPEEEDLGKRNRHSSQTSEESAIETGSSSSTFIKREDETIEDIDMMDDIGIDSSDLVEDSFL
T2 sequence (P42336 whole entry): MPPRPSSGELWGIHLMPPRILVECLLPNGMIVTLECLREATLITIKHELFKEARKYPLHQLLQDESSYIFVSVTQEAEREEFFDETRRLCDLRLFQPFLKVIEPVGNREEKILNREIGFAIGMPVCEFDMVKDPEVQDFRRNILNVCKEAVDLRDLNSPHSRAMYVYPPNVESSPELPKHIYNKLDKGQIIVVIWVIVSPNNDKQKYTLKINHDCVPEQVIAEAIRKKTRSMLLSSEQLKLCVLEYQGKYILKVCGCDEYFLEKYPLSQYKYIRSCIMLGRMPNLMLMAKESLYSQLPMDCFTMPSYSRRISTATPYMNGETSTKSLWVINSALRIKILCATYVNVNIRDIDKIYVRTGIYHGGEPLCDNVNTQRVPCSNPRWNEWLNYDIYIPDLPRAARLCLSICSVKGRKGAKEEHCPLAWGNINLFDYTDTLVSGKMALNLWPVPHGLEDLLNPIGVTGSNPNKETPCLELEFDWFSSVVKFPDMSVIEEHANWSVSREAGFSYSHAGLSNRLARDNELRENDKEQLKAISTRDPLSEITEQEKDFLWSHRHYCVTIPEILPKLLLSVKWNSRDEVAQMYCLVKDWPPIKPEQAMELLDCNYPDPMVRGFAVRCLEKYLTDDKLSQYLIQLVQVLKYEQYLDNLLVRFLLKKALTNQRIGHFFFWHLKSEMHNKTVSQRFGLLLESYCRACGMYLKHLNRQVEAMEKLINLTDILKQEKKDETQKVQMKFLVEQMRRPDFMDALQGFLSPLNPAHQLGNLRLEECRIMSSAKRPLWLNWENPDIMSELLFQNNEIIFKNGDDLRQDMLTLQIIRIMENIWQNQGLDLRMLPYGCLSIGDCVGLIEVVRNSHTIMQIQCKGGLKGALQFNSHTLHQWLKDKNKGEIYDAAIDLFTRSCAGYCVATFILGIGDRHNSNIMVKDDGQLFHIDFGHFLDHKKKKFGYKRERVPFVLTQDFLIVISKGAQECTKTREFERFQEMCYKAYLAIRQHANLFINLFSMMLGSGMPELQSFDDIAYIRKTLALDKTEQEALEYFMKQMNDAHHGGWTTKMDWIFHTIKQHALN
T2 sequence (P27986 whole entry partner): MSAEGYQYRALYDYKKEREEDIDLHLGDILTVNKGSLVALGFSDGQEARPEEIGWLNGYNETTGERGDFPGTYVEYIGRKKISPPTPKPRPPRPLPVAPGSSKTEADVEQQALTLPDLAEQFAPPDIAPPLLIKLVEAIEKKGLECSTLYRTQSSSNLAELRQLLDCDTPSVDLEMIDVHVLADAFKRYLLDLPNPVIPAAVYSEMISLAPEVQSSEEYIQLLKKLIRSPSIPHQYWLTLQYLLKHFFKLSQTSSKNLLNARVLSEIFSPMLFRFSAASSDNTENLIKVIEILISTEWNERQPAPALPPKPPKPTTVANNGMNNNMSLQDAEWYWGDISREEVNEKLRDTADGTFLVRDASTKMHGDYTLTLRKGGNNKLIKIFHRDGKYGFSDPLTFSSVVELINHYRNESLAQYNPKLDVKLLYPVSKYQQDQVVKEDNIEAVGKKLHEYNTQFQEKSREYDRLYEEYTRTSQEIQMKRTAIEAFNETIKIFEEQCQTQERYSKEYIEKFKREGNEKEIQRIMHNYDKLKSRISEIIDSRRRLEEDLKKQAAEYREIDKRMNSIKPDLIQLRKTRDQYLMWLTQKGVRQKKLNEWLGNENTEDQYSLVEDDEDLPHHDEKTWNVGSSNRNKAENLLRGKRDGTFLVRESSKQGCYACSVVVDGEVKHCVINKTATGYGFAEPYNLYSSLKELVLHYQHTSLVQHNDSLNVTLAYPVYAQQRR

Consider `CC(C)(C#N)c1ccc(-c2n[nH]c3cnc4ccc(-c5cccc(Cl)c5)cc4c23)cc1` [Compound 1113, 2-(4-(8-(3-chlorophenyl)-3H-pyrazolo[3,4-c]quinolin-1-yl)phenyl)-2-methylpropanenitrile], for which the negative-log IC50 (pIC50) in test [1] is less than 7.52; in test [4], less than 7.00. Besides, the results for the inhibition at 1 µM in test [2] and in test [3] were not below 70% and 50 to 60%, respectively.

In the case of `COc1ccc(-c2ccc3ncc4[nH]nc(-c5ccc(C(C)(C)C#N)cc5)c4c3c2)cn1` [Compound 1118, 2-(4-(8-(6-methoxypyridin-3-yl)-3H-pyrazolo[3,4-c]quinolin-1-yl)phenyl)-2-methylpropanenitrile], the results for the pIC50 in test [5], in test [1] and in test [4] were more than 8.00, less than 7.52 and less than 6.00, respectively.

Compound `COc1ccc(-c2ccc3ncc4[nH]nc(-c5ccc(C(C)(C)C#N)cc5)c4c3c2)cc1` [Compound 1117, 2-(4-(8-(4-methoxyphenyl)-3H-pyrazolo[3,4-c]quinolin-1-yl)phenyl)-2-methylpropanenitrile] had a negative-log IC50 (pIC50) in test [1] of less than 7.52. The inhibition at 1 µM was more than 50% in test [2] and 60 to 85% in test [3].

Take `CC(C)(C#N)c1ccc(-c2n[nH]c3cnc4ccc(-c5ccc6c(c5)CC=N6)cc4c23)cc1` [Compound 1114, 2-(4-(8-(3H-indol-5-yl)-3H-pyrazolo[3,4-c]quinolin-1-yl)phenyl)-2-methylpropanenitrile]: the negative logarithm of the IC50 (pIC50) was less than 7.70 in test [5], less than 7.52 in test [1] and less than 7.00 in test [4].

Consider `CC(C)(C#N)c1ccc(-c2n[nH]c3cnc4ccc(-c5ccccc5)cc4c23)cc1` [Compound 1125, 2-methyl-2-(4-(8-phenyl-3H-pyrazolo[3,4-c]quinolin-1-yl)phenyl)propanenitrile], for which the results for the pIC50 in test [1] and in test [4] were less than 7.52 and less than 6.00, respectively. The inhibition at 1 µM is not below 75% in test [2] and 60 to 85% in test [3].

Regarding `CC(C)(C#N)c1ccc(-c2n[nH]c3cnc4ccc(-c5cncnc5)cc4c23)cc1` [Compound 1108, 2-methyl-2-(4-(8-(pyrimidin-5-yl)-3H-pyrazolo[3,4-c]quinolin-1-yl)phenyl)propanenitrile], the negative-log IC50 (pIC50) in test [5] is more than 8.00; in test [1] it was 7.70 to 7.92 and < 7.52; in test [4], less than 7.00. The inhibition at 1 µM was more than 97% in test [2] and 60 to 85% in test [3].

Take `CC(C)(C#N)c1ccc(-c2n[nH]c3cnc4ccc(-c5cc(F)cc(F)c5)cc4c23)cc1` [Compound 1112, 2-(4-(8-(3,5-difluorophenyl)-3H-pyrazolo[3,4-c]quinolin-1-yl)phenyl)-2-methylpropanenitrile]: the pIC50 in test [1] is less than 7.52; in test [4], less than 7.00. In test [2], this compound yielded an inhibition at 1 µM not below 75%.

For the compound `CC(C)(C#N)c1ccc(-c2n[nH]c3cnc4ccc(-c5ccc(F)cc5)cc4c23)cc1` [Compound 1116, 2-(4-(8-(4-fluorophenyl)-3H-pyrazolo[3,4-c]quinolin-1-yl)phenyl)-2-methylpropanenitrile], the pIC50 in test [1] is less than 7.52. Further, the inhibition at 1 µM is not below 75% in test [2] and 60 to 85% in test [3].

As for `CC(C)(C#N)c1ccc(-c2n[nH]c3cnc4ccc(-c5cccc(Nc6ccccn6)c5)cc4c23)cc1` [Compound 1120, 2-methyl-2-(4-(8-(3-(pyridin-2-ylamino)phenyl)-3H-pyrazolo[3,4-c]quinolin-1-yl)phenyl)propanenitrile], in test [5], the pIC50 was less than 7.70.

`CC(C)(C#N)c1ccc(-c2n[nH]c3cnc4ccc(-c5ccn6ncnc6c5)cc4c23)cc1` [Compound 1111]: the pIC50 was less than 7.70 in test [5] and 7.52 to 7.70 in test [1]. Also, the inhibition at 1 µM in test [2] is more than 97%; in test [3], more than 95%.

Take `COc1cccc(-c2ccc3ncc4[nH]nc(-c5ccc(C(C)(C)C#N)cc5)c4c3c2)c1` [Compound 1115, 2-(4-(8-(3-methoxyphenyl)-3H-pyrazolo[3,4-c]quinolin-1-yl)phenyl)-2-methylpropanenitrile]: the negative-log IC50 (pIC50) in test [1] is less than 7.52; in test [4] it was less than 6.00. In addition, the inhibition at 1 µM in test [2] is more than 60%; in test [3], 60 to 85%.

`Cc1cccc(-c2ccc3ncc4[nH]nc(-c5ccc(C(C)(C)C#N)cc5)c4c3c2)c1` [Compound 1123, 2-methyl-2-(4-(8-m-tolyl-3H-pyrazolo[3,4-c]quinolin-1-yl)phenyl)propanenitrile]: the pIC50 in test [1] was less than 7.52; in test [4], less than 6.00. Also, the results for the inhibition at 1 µM in test [2] and in test [3] were more than 60% and 50 to 60%, respectively.

For `Cc1ccccc1-c1ccc2ncc3[nH]nc(-c4ccc(C(C)(C)C#N)cc4)c3c2c1` [Compound 1124, 2-methyl-2-(4-(8-o-tolyl-3H-pyrazolo[3,4-c]quinolin-1-yl)phenyl)propanenitrile], the pIC50 in test [1] is less than 7.52. In addition, the inhibition at 1 µM in test [2] is more than 60%.

For `Cc1ccc(-c2ccc3ncc4[nH]nc(-c5ccc(C(C)(C)C#N)cc5)c4c3c2)cc1` [Compound 1126, 2-methyl-2-(4-(8-p-tolyl-3H-pyrazolo[3,4-c]quinolin-1-yl)phenyl)propanenitrile], the negative-log IC50 (pIC50) in test [1] is less than 7.52.

Take `CN[C@@H]1C[C@H]2O[C@@](C)([C@@H]1OC)n1c3ccccc3c3c4c(c5c6ccccc6n2c5c31)C(=O)NC4` [staurosporine]: the negative-log EC50 (pEC50) in test [6] is 8.15.

`CC(C)(C#N)c1ccc(-c2n[nH]c3cnc4ccc(-c5cccc(Nc6ccncc6)c5)cc4c23)cc1` [Compound 1121, 2-methyl-2-(4-(8-(3-(pyridin-4-ylamino)phenyl)-3H-pyrazolo[3,4-c]quinolin-1-yl)phenyl)propanenitrile]: the negative logarithm of the IC50 (pIC50) was less than 7.70 in test [5], 7.70 to 7.92 in test [1] and less than 7.00 in test [4]. For the same compound, the inhibition at 1 µM in test [2] was more than 97%; in test [3], more than 95%.
